Source: patent publication US20230035403A1, “Method For Determining Responsiveness To Prostate Cancer Treatment” (Janssen Biotech, Inc., priority 2020, published 2023)

System: autologous CD3+ Pan-T cells (CD8+ and CD4+ T cells) with peptide-pulsed CD1c+ Dendritic Cells
Experiment: Exogenous autologous normal donor restimulation assay (in vitro immunogenicity)
Assay type: cell-based, human
Conditions: Table 25, pool of overlapping 15-mer peptides, maximum across normal donors; for Maximum Fold Change Over Background CD4+ cells: TNFα+IFNγ+ CD4+ T cells; for Maximum Fold Change Over Background CD4+ cells / Maximum Fold Change Over Background CD8+ cells: over negative control; for Maximum Fold Change Over Background CD8+ cells: TNFα+IFNγ+ CD8+ T cells
Description: CD1c+ Dendritic Cells (DC) isolated from human normal PBMCs were thawed using media (IMDM (Gibco) supplemented with glutamine, HEPES, 5% human serum (Sigma), and 1× Pen-Strep). DC cells were resuspended in media supplemented with IL-4 (Peprotech, 80 ng/mL) and GM-CSF (Gibco, 80 ng/mL), plated in 6 well microplates, and rested overnight at 37° C. (5% CO2). The following day, DC cells were counted and plated in a 96 well round bottom microplate at a concentration of 30,000 viable cells per well. Lyophilized peptides (15-mer overlapping peptides) were solubilized in 100% DMSO and pooled by neoantigen to between 5 mg/mL and 20 mg/mL. Neoantigen peptides pools were added to DCs for a final concentration of 2.5 μg/mL to 10 μg/mL and rested for 2 hours at 37° C. (5% CO2). CEF Peptide Pool “Plus” (Cellular Technologies, Ltd.) was utilized as a positive control and DMSO at the same final concentration as the experimental peptides was utilized as a negative control. After 2 hours, DC cells were irradiated with 50 gray of ionizing radiation. Autologous CD3+ Pan-T cells isolated from human normal PBMCs were thawed using media. Following irradiation, autologous Pan-T cells were added to the irradiated DCs at 300,000 viable cells per well. Human IL-15 (Peprotech) was added to all wells at final concentration of 10 ng/mL.
Plates were incubated at 37° C. (5% CO2) for a total of 12 days. Media was refreshed every 2-3 days with IL-15 (10 ng/mL final concentration) and IL-2 (R&D systems, 10 IU/mL final concentration). On day 11 cells were re-stimulated with identical experimental peptide pools or controls, at same concentration as peptide stimulation on Day 1. Protein Inhibitor Cocktail (eBioscience) was added to every well and plate was incubated overnight at 37° C. (5% CO2).
On day 12, cells were stained for intracellular flow cytometry analysis. The cells were washed with PBS and stained with Live/Dead Fixable Aqua Dead Cell stain (Thermo-Fisher). Following the live/dead stain, cells were blocked using Biotin-Free Fc Receptor Blocker (Accurate Chemical & Scientific Corp). Extracellular cellular flow panel (1 μL/antibody per well in 50 μL) consisted of CD3 PerCP-Cy5.5 (Biolegend), CD4 BV421 (Biolegend), and CD8 APC-Cy7 (Biolegend). After extracellular staining, cells were fixed using Foxp3/Transcription Factor Staining Buffer Set (eBioscience) and stained for intracellular proteins (1:50 dilution) using TNFα FITC (R&D Systems) and IFNγ BV785 (Biolegend). Cells were washed and resuspended in stain buffer and analyzed using a BD Celesta flow cytometer.
Flow cytometry cell staining analysis was completed using FlowJo v10. Cells were gated on live, singlet, CD3+ cells. The CD8+ and CD4+ T cells were analyzed for TNFα/IFNγ expression and the frequency of double positive TNFα/IFNγ CD8+ and the frequency of double positive TNFα/IFNγ CD4+ T cells were recorded. Responses were assessed to be positive when the frequency of double positive TNFα/IFNγ CD8+ or TNFα/IFNγ CD4+ T cells due to stimulation with an experimental peptide pool was increased greater than or equal to 3-fold over the DMSO only negative control for that donor and at least 0.01%.
(§1) Overlapping 15-mer peptides were designed to span each neoantigen incorporated into NeoGAd20 and NeoMVA to assess their ability to activate T cells using the exogenous autologous normal donor restimulation assay described in Example 1 as pools using TNFα and IFNγ production by CD8^+ and CD4^+ T cells as a readout.
as §1, with “Immunogenicity of various additional identified neoantigens was assessed. Overlapping” for “Overlapping”, “similarly to what was done in Example 11” for “incorporated into NeoGAd20 and NeoMVA”

Sequence	Maximum Fold Change Over Background CD4+ cells	Maximum Fold Change Over Background CD8+ cells	Maximum Frequency of TNFα/IFNγ Double Positive CD4+ T cells	Maximum Frequency of TNFα/IFNγ Double Positive CD8+ T cells
YEAGMTLGEKFRVGNCKHLKMTRP [Neoantigen P82]	4.44	2.92	0.17	0.09
SLYHREKQLIAMDSAI [Neoantigen P22]	18.16	1.56	0.075	0.025
YEAGMTLGGKILFFLFLLLPLSPFSLIF [Neoantigen P87]	7.86	9.20	0.110	0.460
